From ChEMBL document CHEMBL1147622, “Design and synthesis of indolo[2,3-a]quinolizin-7-one inhibitors of the ZipA-FtsZ interaction” (2004) come the findings set out here.

The structures appear in SMILES notation. Where only a bound is given, the exact number is not on record here.

The first assay concerns Escherichia coli. Kind of assay: Inhibition of ZipA FtsZ binding at 1 mM using an optical biosensor system.
Consider `CCCCS(=O)(=O)NCCCn1c2c(c3ccccc31)C(=O)CN1CCCCC21` (stereo not given), for which the inhibition was found to be 25%.
Take `Cc1nnsc1S(=O)(=O)NCCCn1c2c(c3ccccc31)C(=O)CN1CCCCC21` (stereo not given): the inhibition worked out at 30%.
The same measure, in the same setting: next, `O=C(CCCn1c2c(c3ccccc31)C(=O)CN1CCCCC21)NC1CCCC1` (stereo not given): 24%.
`N#CCCNC(=O)CCCn1c2c(c3ccccc31)C(=O)CN1CCCCC21` (stereo not given) yielded an inhibition of 39%.
In turn, `O=C(CCCn1c2c(c3ccccc31)C(=O)CN1CCCCC21)NCC(F)(F)F` (stereo not given) displayed an inhibition of 21%.
Compound `O=C1CN2CCCCC2c2c1c1ccccc1n2CCCNS(=O)(=O)c1cccs1` (stereo not given) displayed an inhibition of 25%.
In turn, `CS(=O)(=O)NCCCn1c2c(c3ccccc31)C(=O)CN1CCCCC21` (stereo not given) registered an inhibition of 41%.
The compound `O=C(Cn1c2c(c3ccccc31)C(=O)CN1CCCCC21)NC1CCCC1` (stereo not given) had an inhibition of 31%.
On the same count and under the same terms, then `O=C1CN2CCCCC2c2c1c1ccccc1n2CCCNS(=O)(=O)c1ccc(Cl)s1` (stereo not given), with 11%; and `Cc1ccc(CNC(=O)CCCn2c3c(c4ccccc42)C(=O)CN2CCCCC32)o1` (stereo not given), with 23%.
On the same count and under the same terms, then `O=C1CN2CCCCC2c2[nH]c3ccccc3c21` (stereo not given), with 39%; and `O=C(Cc1ccc(F)cc1)NCCCn1c2c(c3ccccc31)C(=O)CN1CCCCC21` (stereo not given), with 33%.
In the case of `O=C1CN2CCCCC2c2c1c1ccccc1n2CCCN1CC(Br)C1=O` (stereo not given), the inhibition stood at 38%.
On the same count and under the same terms, then `NCCCn1c2c(c3ccccc31)C(=O)CN1CCCCC21` (stereo not given), with 47%.
Same read-out and setting: then `O=C(NCCCn1c2c(c3ccccc31)C(=O)CN1CCCCC21)c1ccc(Cl)c(Cl)c1` (stereo not given), with 8%; and `N#CCCNC(=O)CCn1c2c(c3ccccc31)C(=O)CN1CCCCC21` (stereo not given), with 22%.
For `CC(C)S(=O)(=O)NCCCn1c2c(c3ccccc31)C(=O)CN1CCCCC21` (stereo not given), the inhibition was determined as 46%.
Turning to `Cc1ccc(CNC(=O)CCn2c3c(c4ccccc42)C(=O)CN2CCCCC32)o1` (stereo not given), the inhibition was found to be 32%.
Same read-out and setting: then `O=C(NCCCn1c2c(c3ccccc31)C(=O)CN1CCCCC21)c1ccco1` (stereo not given), with 38%; and `O=C1CN2CCCCC2c2c1c1ccccc1n2CCCNS(=O)(=O)c1cc(Cl)sc1Cl` (stereo not given), with 12%.

System in another assay: not listed separately
Kind of assay: Antibacterial activity against Gram-positive, Gram-negative bacteria and Escherichia coli. Format: functional.
On to `CCCCS(=O)(=O)NCCCn1c2c(c3ccccc31)C(=O)CN1CCCCC21` (stereo not given), for which the MIC is ≥ 200 µM.
The same measure, in the same setting: next, `Cc1nnsc1S(=O)(=O)NCCCn1c2c(c3ccccc31)C(=O)CN1CCCCC21` (stereo not given): ≥ 200 µM.
Still for that read-out and setting: next, `O=C(CCCn1c2c(c3ccccc31)C(=O)CN1CCCCC21)NC1CCCC1` (stereo not given): ≥ 200 µM.
Consider `N#CCCNC(=O)CCCn1c2c(c3ccccc31)C(=O)CN1CCCCC21` (stereo not given), for which the MIC was ≥ 200 µM.
On to `O=C(CCCn1c2c(c3ccccc31)C(=O)CN1CCCCC21)NCC(F)(F)F` (stereo not given), for which the minimal inhibitory concentration (MIC) was ≥ 200 µM.
Still for that read-out and setting: next, `O=C1CN2CCCCC2c2c1c1ccccc1n2CCCNS(=O)(=O)c1cccs1` (stereo not given): ≥ 200 µM.
For the compound `CS(=O)(=O)NCCCn1c2c(c3ccccc31)C(=O)CN1CCCCC21` (stereo not given), the MIC was ≥ 200 µM.
Same read-out and setting: next, `O=C(Cn1c2c(c3ccccc31)C(=O)CN1CCCCC21)NC1CCCC1` (stereo not given): ≥ 200 µM.
Regarding `O=C1CN2CCCCC2c2c1c1ccccc1n2CCCNS(=O)(=O)c1ccc(Cl)s1` (stereo not given), the MIC is ≥ 200 µM.
Same read-out and setting: next, `Cc1ccc(CNC(=O)CCCn2c3c(c4ccccc42)C(=O)CN2CCCCC32)o1` (stereo not given): ≥ 200 µM.
Same read-out and setting: then `O=C1CN2CCCCC2c2[nH]c3ccccc3c21` (stereo not given), with ≥ 200 µM; and `O=C(Cc1ccc(F)cc1)NCCCn1c2c(c3ccccc31)C(=O)CN1CCCCC21` (stereo not given), with ≥ 200 µM; and `O=C1CN2CCCCC2c2c1c1ccccc1n2CCCN1CC(Br)C1=O` (stereo not given), with ≥ 200 µM.
Still for that read-out and setting: then `NCCCn1c2c(c3ccccc31)C(=O)CN1CCCCC21` (stereo not given), with ≥ 200 µM; and `O=C(NCCCn1c2c(c3ccccc31)C(=O)CN1CCCCC21)c1ccc(Cl)c(Cl)c1` (stereo not given), with ≥ 200 µM.
For `N#CCCNC(=O)CCn1c2c(c3ccccc31)C(=O)CN1CCCCC21` (stereo not given), the minimal inhibitory concentration (MIC) is ≥ 200 µM.
The same measure, in the same setting: next, `CC(C)S(=O)(=O)NCCCn1c2c(c3ccccc31)C(=O)CN1CCCCC21` (stereo not given): ≥ 200 µM; `Cc1ccc(CNC(=O)CCn2c3c(c4ccccc42)C(=O)CN2CCCCC32)o1` (stereo not given): ≥ 200 µM; `O=C(NCCCn1c2c(c3ccccc31)C(=O)CN1CCCCC21)c1ccco1` (stereo not given): ≥ 200 µM.
On the same count and under the same terms, next, `O=C1CN2CCCCC2c2c1c1ccccc1n2CCCNS(=O)(=O)c1cc(Cl)sc1Cl` (stereo not given): ≥ 200 µM.

As a reminder, the inhibition is the change of the read-out against control, counted positive when it falls. By MIC is commonly meant the lowest concentration found to suppress growth. Low readings indicate greater potency, high ones weaker potency.
